Laboratory results as given in US5110976A, “Insecticidal composition comprising more than one active ingredient” (priority 1985, dated 1992).

Key:
Tribolium confusum [1] = assay: Contact test, mixtures of Ia and Ib of various ratio (Table 13); format: in vivo, flour beetle (Tribolium confusum)
Method: (§1) The active ingredient is dissolved in a 1:2 mixture of oil and acetone; filter paper discs (Whatman No. 1, diameter 9 cm) are impregnated with the solutions of the corresponding stereoisomers and enantiomer-pairs, respectively. The acetone is allowed to evaporate, whereupon the insects are exposed to filter papers discs placed in Petri-dishes. Three parallels are used on each dose and 15 insects are placed into each Petri-dish. The percental mortality is determined after 24 hours. The corrected percent mortality is calculated by means of the Abbot Formula.
In Table 13 the insecticidal effect of mixtures of enantiomer-pairs Ia and Ib of various ratio is shown on flour beetle (Tribolium confusum). The test method is that disclosed in Example 43.

Colorado potato beetle = assay: Topical test on Colorado potato beetle (Table 14); format: in vivo, Colorado potato beetle (Leptinotersa decemlineata), imago
Method: In Table 14 the activity on Colorado potato beetle is shown.
The test materials are dissolved in 2-ethoxyethanol (Cellosolve). One 0.3 μl drop of the solution is applied to the abdominal sterna of the imago. The treatment is carried out by using 2 parallels and 10 insects for each dose. […]

Tribolium confusum [2] = assay: Contact test on Tribolium confusum (Table 12); format: in vivo; conditions: Tribolium confusum, 24 h; for mortality at 330 µg/disc: 0.33 mg/disc; for mortality at 1000 µg/disc: 1.00 mg/disc; for mortality at 3000 µg/disc: 3.00 mg/disc; for mortality at 110 µg/disc: 0.11 mg/disc
Method: as §1
It appears from Table 12 that the increased activity shown in Example 41 is due to the synergistic effect of the trans-isomers to Tribolium confusum.

T. confusum [3] = assay: Activity as function of time, toxic symptoms (Table 16); format: in vivo, flour beetle (T. confusum), imagos
Method: as §1
Activity of cypermethrin stereoisomer-pairs as function of time on flour beetle (T. Confusum).
Flour beetle (T. confusum) imagos are exposed in Petri-dishes according to the method described in Example 43. For each dose 3 parallels are used and 15 animals are applied for each parallel test. In each point of time the insects lying on their backs are counted and the percental results are expressed in Table 16.

Musca domestica [4] = assay: Filter paper disc contact test (Table 11); format: in vivo, house fly (Musca domestica); conditions: Musca domestica, 24 h
Method: In Table 1 the activity of various stereoisomers of cypermethrin on the house fly (Musca domestica) is shown.
as §1

T. confusum [5] = assay: Topical LD50 (Table 3); format: in vivo, 1-2 weeks' old imagos; conditions: topical, abdominal side
Method: (§2) In Table 3 the LD50 values of the Ig and Ii isomers and those of the Ib isomer-pair are disclosed. The data are topically measured.
(§3) The active ingredients are dissolved in 2-ethoxyethanol (cellosolve) and 0.3 μl droplets of the solutions are applied onto the dorsal cuticulum of 3-5 days' old female house flies. 10 animals are used and 2 parallels are carried out for each dose. The tests are carried out for 5 dose levels between activity limits of 0% and 100%. After treatment the flies are placed into glass vials. Mortality is determined after 24 hours. Data are transformed to log10 dosage and probit mortality. LD50 and confidence interval values are calculated by linear regression analysis of the log-probit data. The expected values required for the calculation of synergism are obtained by means of harmonic average. The synergistic factor is the quotient of the expected and measured values.
The active ingredients are dissolved in 2-ethoxyethanol and 0.3 μl droplets of the solutions are applied onto the abdominal side of 1-2 weeks' old imagos. Treatment is carried out with 2 parallels and 20 animals for each dose by using 5 dose levels in the range between activity limits of 0% and 100%. Evaluation and determination of LD50 values and synergistic factors are carried out as described in Example 21.

Musca domestica [6] = assay: Topical LD50 (Table 3); format: in vivo, house fly (Musca domestica), 3-5 days' old females; conditions: topical, dorsal cuticulum; 24 hours
Method: as §2, §3

T. confusum [7] = assay: Contact method, synergism between stereoisomers (Table 2); format: in vivo; conditions: Tribolium confusum, 24 h
Method: The stereoisomers are dissolved in a 1:2 mixture of mineral oil and acetone and filter paper discs (Whatman No. 1., diameter 9 cm) are impregnated with the corresponding dosage of the solution of the active ingredient. The acetone is allowed to evaporate and the insects are examined on filter paper discs placed into Petri-dishes. Three parallels are used for each dose and 15 animals are placed in each Petri-dish. Mortality rate is determined after 24 hours. The corrected mortality % data are calculated by means of the Abbot formula.
The test is carried out on T. confusum and the following results are obtained by the contact method for various active ingredient doses.
The test is carried out according to the method described in Example 20.

## CC1(C)C(C=C(Cl)Cl)C1C(=O)OC(C#N)c1cccc(Oc2ccccc2)c1 (stereo not shown) [5:5]
Tribolium confusum [1]; 0.02 mg/disc, 1440 min
  24 hours' mortality %: 0%
Tribolium confusum [1]; 0.06 mg/disc, 1440 min
  24 hours' mortality %: 43%
Tribolium confusum [1]; Tribolium confusum, 24 h, 0.25 mg/disc
  mortality at 250 µg/disc: 100%
Tribolium confusum [1]; Tribolium confusum, 24 h, 1.00 mg/disc
  mortality at 1000 µg/disc: 100%

## CC1(C)C(C=C(Cl)Cl)C1C(=O)OC(C#N)c1cccc(Oc2ccccc2)c1 (stereo not shown) [Ia:Ib = 3:7]
Colorado potato beetle; 0.05 μg/beetle
  24 hours' mortality %: 45%
Colorado potato beetle; 0.10 μg/beetle
  24 hours' mortality %: 65%
Colorado potato beetle; 0.20 μg/beetle
  24 hours' mortality %: 75%
Colorado potato beetle; 0.40 μg/beetle
  24 hours' mortality %: 85%
Tribolium confusum [1]; 0.02 mg/disc, 1440 min
  24 hours' mortality %: 20%
Tribolium confusum [1]; 0.06 mg/disc, 1440 min
  24 hours' mortality %: 81%
Tribolium confusum [1]; 0.25 mg/disc
  24 hours' mortality %: 100%
Tribolium confusum [1]; 1.00 mg/disc
  24 hours' mortality %: 100%

## CC1(C)[C@H](C(=O)O[C@H](C#N)c2cccc(Oc3ccccc3)c2)[C@@H]1C=C(Cl)Cl [If]
Tribolium confusum [2]
  mortality at 330 µg/disc: 100%
  mortality at 1000 µg/disc: 100%
  mortality at 3000 µg/disc: 100%
T. confusum [3]; 30 minutes
  % of insects showing toxic symptoms: 0%
T. confusum [3]; 30 minutes, 0.33 mg/disc
  % of insects showing toxic symptoms: 0%
T. confusum [3]; 30 minutes, 1.00 mg/disc
  % of insects showing toxic symptoms: 48%
T. confusum [3]; 30 minutes, 3.00 mg/disc
  % of insects showing toxic symptoms: 64%
T. confusum [3]; 60 minutes
  % of insects showing toxic symptoms: 0%
T. confusum [3]; 60 minutes, 0.33 mg/disc
  % of insects showing toxic symptoms: 5%
T. confusum [3]; 60 minutes, 1.00 mg/disc
  % of insects showing toxic symptoms: 84%
T. confusum [3]; 60 minutes, 3.00 mg/disc
  % of insects showing toxic symptoms: 100%
T. confusum [3]; 120 minutes
  % of insects showing toxic symptoms: 0%
T. confusum [3]; 120 minutes, 0.33 mg/disc
  % of insects showing toxic symptoms: 40%
T. confusum [3]; 120 minutes, 1.00 mg/disc
  % of insects showing toxic symptoms: 100%
T. confusum [3]; 120 minutes, 3.00 mg/disc
  % of insects showing toxic symptoms: 100%
T. confusum [3]; 180 minutes
  % of insects showing toxic symptoms: 39%
T. confusum [3]; 180 minutes, 0.33 mg/disc
  % of insects showing toxic symptoms: 61%
T. confusum [3]; 180 minutes, 1.00 mg/disc
  % of insects showing toxic symptoms: 100%
T. confusum [3]; 180 minutes, 3.00 mg/disc
  % of insects showing toxic symptoms: 100%
Musca domestica [4]; 0.04 mg/disc
  mortality at 40 µg/disc: 68%
Musca domestica [4]; 0.11 mg/disc
  mortality at 110 µg/disc: 93%
Musca domestica [4]; 0.33 mg/disc
  mortality at 330 µg/disc: 100%
Musca domestica [4]; 1.00 mg/disc
  mortality at 1000 µg/disc: 100%
Musca domestica [4]; 3.00 mg/disc
  mortality at 3000 µg/disc: 100%

## CC1(C)[C@H](C=C(Cl)Cl)[C@@H]1C(=O)O[C@@H](C#N)c1cccc(Oc2ccccc2)c1 [Ih]
Tribolium confusum [2]
  mortality at 110 µg/disc: 0%
  mortality at 330 µg/disc: 38%
  mortality at 1000 µg/disc: 80%
  mortality at 3000 µg/disc: 100%
T. confusum [3]; 30 minutes
  % of insects showing toxic symptoms: 0%
T. confusum [3]; 30 minutes, 0.33 mg/disc
  % of insects showing toxic symptoms: 0%
T. confusum [3]; 30 minutes, 1.00 mg/disc
  % of insects showing toxic symptoms: 0%
T. confusum [3]; 30 minutes, 3.00 mg/disc
  % of insects showing toxic symptoms: 0%
T. confusum [3]; 60 minutes
  % of insects showing toxic symptoms: 0%
T. confusum [3]; 60 minutes, 0.33 mg/disc
  % of insects showing toxic symptoms: 0%
T. confusum [3]; 60 minutes, 1.00 mg/disc
  % of insects showing toxic symptoms: 0%
T. confusum [3]; 60 minutes, 3.00 mg/disc
  % of insects showing toxic symptoms: 8%
T. confusum [3]; 120 minutes
  % of insects showing toxic symptoms: 0%
T. confusum [3]; 120 minutes, 0.33 mg/disc
  % of insects showing toxic symptoms: 0%
T. confusum [3]; 120 minutes, 1.00 mg/disc
  % of insects showing toxic symptoms: 0%
T. confusum [3]; 120 minutes, 3.00 mg/disc
  % of insects showing toxic symptoms: 67%
T. confusum [3]; 180 minutes
  % of insects showing toxic symptoms: 0%
T. confusum [3]; 180 minutes, 0.33 mg/disc
  % of insects showing toxic symptoms: 0%
T. confusum [3]; 180 minutes, 1.00 mg/disc
  % of insects showing toxic symptoms: 0%
T. confusum [3]; 180 minutes, 3.00 mg/disc
  % of insects showing toxic symptoms: 88%

## CC1(C)[C@@H](C=C(Cl)Cl)[C@@H]1C(=O)O[C@@H](C#N)c1cccc(Oc2ccccc2)c1 [Ii]
Tribolium confusum [2]
  mortality at 110 µg/disc: 0%
  mortality at 330 µg/disc: 0%
  mortality at 1000 µg/disc: 71%
  mortality at 3000 µg/disc: 90%
T. confusum [3]; 30 minutes
  % of insects showing toxic symptoms: 0%
T. confusum [3]; 30 minutes, 0.33 mg/disc
  % of insects showing toxic symptoms: 0%
T. confusum [3]; 30 minutes, 1.00 mg/disc
  % of insects showing toxic symptoms: 0%
T. confusum [3]; 30 minutes, 3.00 mg/disc
  % of insects showing toxic symptoms: 15%
T. confusum [3]; 60 minutes
  % of insects showing toxic symptoms: 0%
T. confusum [3]; 60 minutes, 0.33 mg/disc
  % of insects showing toxic symptoms: 0%
T. confusum [3]; 60 minutes, 1.00 mg/disc
  % of insects showing toxic symptoms: 0%
T. confusum [3]; 60 minutes, 3.00 mg/disc
  % of insects showing toxic symptoms: 70%
T. confusum [3]; 120 minutes
  % of insects showing toxic symptoms: 0%
T. confusum [3]; 120 minutes, 0.33 mg/disc
  % of insects showing toxic symptoms: 0%
T. confusum [3]; 120 minutes, 1.00 mg/disc
  % of insects showing toxic symptoms: 0%
T. confusum [3]; 120 minutes, 3.00 mg/disc
  % of insects showing toxic symptoms: 100%
T. confusum [3]; 180 minutes
  % of insects showing toxic symptoms: 0%
T. confusum [3]; 180 minutes, 0.33 mg/disc
  % of insects showing toxic symptoms: 0%
T. confusum [3]; 180 minutes, 1.00 mg/disc
  % of insects showing toxic symptoms: 0%
T. confusum [3]; 180 minutes, 3.00 mg/disc
  % of insects showing toxic symptoms: 100%
T. confusum [5]
  LD50 measured: 1291.8 ng/insect
Musca domestica [6]
  LD50 measured: 141.9 ng/insect
T. confusum [7]; 0.11 mg/disc
  mortality at 110 µg/disc: 0%
T. confusum [7]; 0.33 mg/disc
  mortality at 330 µg/disc: 0%
T. confusum [7]; 1.00 mg/disc
  mortality at 1000 µg/disc: 71%
T. confusum [7]; 3.00 mg/disc
  mortality at 3000 µg/disc: 90%
